Experiments:
human V1a receptor = human V1a receptor (Homo sapiens (Human), UniProt P37288); assay: Cellular in vitro assay for determining vasopressin receptor activity (V1a, aequorin luminescence); type: cell-based; details: for IC50: CHO cell line transfected with human V1a receptor, [Arg8]-vasopressin at EC50 concentration, read-out: IC50 hV1a; for ratio IC50 hV2/hV1a: selectivity, IC50 hV2 divided by IC50 hV1a
human V2 receptor = human V2 receptor (Homo sapiens (Human), UniProt P30518); assay: Cellular in vitro assay for determining vasopressin receptor activity (V2, CRE-luciferase); type: cell-based; details: CHO cell line transfected with human V2 receptor; [Arg8]-vasopressin at EC50 concentration; read-out: IC50 hV2
Sequence of human V2 receptor (P30518 whole entry): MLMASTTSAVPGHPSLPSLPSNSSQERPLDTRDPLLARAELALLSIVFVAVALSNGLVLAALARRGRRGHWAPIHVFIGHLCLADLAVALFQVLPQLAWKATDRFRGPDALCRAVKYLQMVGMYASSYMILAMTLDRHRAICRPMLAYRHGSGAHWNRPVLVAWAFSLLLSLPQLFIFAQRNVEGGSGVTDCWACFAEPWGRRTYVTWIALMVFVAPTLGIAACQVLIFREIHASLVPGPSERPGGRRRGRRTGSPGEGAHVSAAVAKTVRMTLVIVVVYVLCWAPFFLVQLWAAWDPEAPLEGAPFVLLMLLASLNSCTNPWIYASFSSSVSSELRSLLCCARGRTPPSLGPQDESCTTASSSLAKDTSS

Sequence of human V1a receptor (P37288 whole entry): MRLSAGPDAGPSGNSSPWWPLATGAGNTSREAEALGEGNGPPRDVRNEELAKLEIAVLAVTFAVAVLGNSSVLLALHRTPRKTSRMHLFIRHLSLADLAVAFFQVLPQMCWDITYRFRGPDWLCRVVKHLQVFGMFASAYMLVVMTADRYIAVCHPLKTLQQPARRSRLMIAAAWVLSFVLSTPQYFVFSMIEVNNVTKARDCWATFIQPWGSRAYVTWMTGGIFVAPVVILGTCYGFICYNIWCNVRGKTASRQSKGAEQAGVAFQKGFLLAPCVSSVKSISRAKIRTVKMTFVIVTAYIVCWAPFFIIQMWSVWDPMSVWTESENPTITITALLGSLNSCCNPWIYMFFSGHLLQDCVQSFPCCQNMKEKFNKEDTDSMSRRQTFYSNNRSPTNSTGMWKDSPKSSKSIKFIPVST

IC50 (human V1a receptor) [nM] | ratio IC50 hV2/hV1a (human V1a receptor) | IC50 (human V2 receptor) [nM] | SMILES
1.6 | 23.8 | 38 | O=C(NC(Cn1c(-c2ccc(Cl)cc2)nn(Cc2ncn(-c3ncccc3Cl)n2)c1=O)C(F)(F)F)C1CC(F)(F)CN1 (stereo not drawn) [Example 53, N-{3-[3-(4-Chlorophenyl)-1-{[1-(3-chloropyridin-2-yl)-1H-1,2,4-triazol-3-yl]methyl}-5-oxo-1,5-dihydro-4H-1,2,4-triazol-4-yl]-1,1,1-trifluoropropan-2-yl}-4,4-difluoro-prolinamide]
6.35 | 70.1 | 445 | Cl.O=C(NC(Cn1c(-c2ccc(Cl)cc2)nn(Cc2ncn(-c3ncccc3C(F)(F)F)n2)c1=O)C(F)(F)F)[C@@H]1C[C@@H](F)CN1 (stereo partly drawn) [Example 70, N-{3-[3-(4-Chlorophenyl)-5-oxo-1-({1-[3-(trifluoromethyl)pyridin-2-yl]-1H-1,2,4-triazol-3-yl}methyl)-1,5-dihydro-4H-1,2,4-triazol-4-yl]-1,1,1-trifluoropropan-2-yl}-4-fluoro-L-prolinamide]
5.95 | 47.5 | 283 | N#CC1(C(=O)NC(Cn2c(-c3ccc(Cl)cc3)nn(Cc3ncn(-c4ncccc4Cl)n3)c2=O)C(F)(F)F)CC1 (racemic) [Example 21]
8.9 | 58.4 | 520 | O=C(CN1CCOC1=O)NC(Cn1c(-c2ccc(Cl)cc2)nn(Cc2ncn(-c3ncccc3Cl)n2)c1=O)C(F)(F)F (racemic) [Example 20, N-{3-[3-(4-Chlorophenyl)-1-{[1-(3-chloropyridin-2-yl)-1H-1,2,4-triazol-3-yl]methyl}-5-oxo-1,5-dihydro-4H-1,2,4-triazol-4-yl]-1,1,1-trifluoropropan-2-yl}-2-(2-oxo-1,3-oxazolidin-3-yl)acetamide]
295 | 108.5 | 32000 | O=C1CC[C@@H](C(=O)NC(Cn2c(-c3ccc(Cl)cc3)nn(Cc3ncn(-c4ncccc4Cl)n3)c2=O)C(F)(F)F)N1 (single isomer, unassigned) [Example 37, N-{3-[3-(4-Chlorophenyl)-1-{[1-(3-chloropyridin-2-yl)-1H-1,2,4-triazol-3-yl]methyl}-5-oxo-1,5-dihydro-4H-1,2,4-triazol-4-yl]-1,1,1-trifluoropropan-2-yl}-5-oxo-L-prolinamide]
10.6 | 56.4 | 595 | N#CCC(=O)NC(Cn1c(-c2ccc(Cl)cc2)nn(Cc2ncn(-c3ncccc3Cl)n2)c1=O)C(F)(F)F (racemic) [Example 5, N-{3-[3-(4-Chlorophenyl)-1-{[1-(3-chloropyridin-2-yl)-1H-1,2,4-triazol-3-yl]methyl}-5-oxo-1,5-dihydro-4H-1,2,4-triazol-4-yl]-1,1,1-trifluoropropan-2-yl}-2-cyanoacetamide]
6.3 | 33.9 | 213 | O=C(NC(Cn1c(-c2ccc(Cl)cc2)nn(Cc2ncn(-c3ncccc3Cl)n2)c1=O)C(F)(F)F)C1CCS(=O)(=O)C1 (stereo not drawn) [Example 30, N-{3-[3-(4-Chlorophenyl)-1-{[1-(3-chloropyridin-2-yl)-1H-1,2,4-triazol-3-yl]methyl}-5-oxo-1,5-dihydro-4H-1,2,4-triazol-4-yl]-1,1,1-trifluoropropan-2-yl}tetrahydrothiophene-3-carboxamide 1,1-dioxide]
1.5 | 38.0 | 57 | O=C(NC(Cn1c(-c2ccc(Cl)cc2)nn(Cc2ncn(-c3ncccc3Cl)n2)c1=O)C(F)(F)F)C1(C(F)(F)F)CC1 (racemic) [Example 41, N-{3-[3-(4-Chlorophenyl)-1-{[1-(3-chloropyridin-2-yl)-1H-1,2,4-triazol-3-yl]methyl}-5-oxo-1,5-dihydro-4H-1,2,4-triazol-4-yl]-1,1,1-trifluoropropan-2-yl}-1-(trifluoromethyl)cyclopropane-carboxamide]

Reference: US11149023B2, “Substituted triazole derivatives and uses thereof” (Bayer Pharma Aktiengesellschaft, priority 2017, dated 2021)
